This note sets out measurements from patent US10829473B2, “Modulators of the cystic fibrosis transmembrane conductance regulator protein and methods of use” (AbbVie Overseas S.Á.R.L., priority 2017, dated 2020).

Read-outs that look alike come from different tables or passages of the source. Marks after values point to notes of the source that are not given here.

The assay concerns the target T1, F508delCFTR (Homo sapiens, UniProt P13569, DEL508-508).
T1 construct: expressed in transfected cells; host or cells: CFBE41o- human lung derived epithelial cells (CFBE41o-F508delCFTR-HRP), doxycycline-inducible
As to the kind of experiment: Cell Surface Expression-Horse Radish Peroxidase (CSE-HRP) Assay.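 As to EC50 (with co-corrector): co-corrector chromenyl benzoic acid corrector at 2 or 3 µM.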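 As to Maximum % activity (without co-corrector): % of on-plate positive control chromenyl benzoic acid corrector at 2 or 3 µM.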 Format: cell-based. The note with it: for Maximum % activity (with co-corrector) / Emax: maximum at any tested concentration; for Emax: read-out: Maximum % activity (without co-corrector). The method, boiled down: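 Corrector compounds were given as 8-point 3-fold series from 20 or 30 μM, with or without a 2 μM co-corrector, for 18-24 h at 33 °C. Surface HRP was read by luminol luminescence as % of positive control; variable-Hill-slope sigmoidal fitting gave EC50 from triplicate plates.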

The mark [1] stands for this setting: test compound alone, without co-corrector, read-out: EC50 (without co-corrector).
Setting [2] is: with co-corrector, read-out: EC50 (with co-corrector).
Where [3] appears, read: test compound with co-corrector.
Setting [4] is: test compound with co-corrector, read-out: EC50 (with co-corrector).
Where [5] appears, read: test compound without co-corrector.
The mark [6] stands for this setting: test compound without co-corrector, read-out: EC50 (without co-corrector).

T1 sequence (P13569 with tags, fused parts or gaps DEL508-508): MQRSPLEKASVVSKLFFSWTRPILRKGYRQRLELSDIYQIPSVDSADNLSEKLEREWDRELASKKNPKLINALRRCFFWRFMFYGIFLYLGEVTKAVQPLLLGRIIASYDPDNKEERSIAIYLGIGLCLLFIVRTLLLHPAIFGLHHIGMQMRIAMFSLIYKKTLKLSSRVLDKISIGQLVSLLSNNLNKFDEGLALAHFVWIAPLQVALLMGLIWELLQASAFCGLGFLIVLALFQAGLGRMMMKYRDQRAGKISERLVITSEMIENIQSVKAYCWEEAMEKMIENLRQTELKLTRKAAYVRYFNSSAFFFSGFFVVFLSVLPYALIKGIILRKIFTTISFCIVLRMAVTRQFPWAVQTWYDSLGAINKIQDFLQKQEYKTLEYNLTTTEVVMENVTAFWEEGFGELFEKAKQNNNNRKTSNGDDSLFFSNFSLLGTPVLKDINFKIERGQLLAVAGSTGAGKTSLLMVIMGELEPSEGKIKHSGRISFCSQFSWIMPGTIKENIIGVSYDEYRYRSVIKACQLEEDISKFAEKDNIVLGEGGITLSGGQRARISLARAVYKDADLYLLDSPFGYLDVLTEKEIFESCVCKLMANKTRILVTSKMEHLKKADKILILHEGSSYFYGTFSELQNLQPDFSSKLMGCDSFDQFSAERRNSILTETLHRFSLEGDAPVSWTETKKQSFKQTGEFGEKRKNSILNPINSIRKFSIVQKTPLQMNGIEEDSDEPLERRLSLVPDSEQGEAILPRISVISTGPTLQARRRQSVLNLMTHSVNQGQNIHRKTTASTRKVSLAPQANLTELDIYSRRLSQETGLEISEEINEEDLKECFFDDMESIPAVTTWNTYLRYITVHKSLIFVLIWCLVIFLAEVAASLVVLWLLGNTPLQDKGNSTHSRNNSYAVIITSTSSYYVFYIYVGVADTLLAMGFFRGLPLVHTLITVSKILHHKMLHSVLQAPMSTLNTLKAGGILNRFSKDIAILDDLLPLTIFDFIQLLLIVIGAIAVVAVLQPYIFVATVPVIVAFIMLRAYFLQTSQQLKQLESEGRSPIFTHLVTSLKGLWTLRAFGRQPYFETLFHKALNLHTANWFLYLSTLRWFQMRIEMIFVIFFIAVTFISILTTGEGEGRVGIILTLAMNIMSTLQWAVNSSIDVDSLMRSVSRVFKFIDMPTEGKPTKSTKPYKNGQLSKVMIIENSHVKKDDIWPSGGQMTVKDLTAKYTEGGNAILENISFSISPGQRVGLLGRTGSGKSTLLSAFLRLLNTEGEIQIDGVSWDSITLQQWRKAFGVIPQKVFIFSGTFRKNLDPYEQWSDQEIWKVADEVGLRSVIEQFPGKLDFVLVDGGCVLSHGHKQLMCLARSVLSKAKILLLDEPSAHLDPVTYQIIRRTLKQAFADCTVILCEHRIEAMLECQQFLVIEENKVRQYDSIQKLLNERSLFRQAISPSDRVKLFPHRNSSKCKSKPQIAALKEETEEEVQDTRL

As for `COc1ccc(C2CCCC2)cc1C1(C(=O)NS(=O)(=O)c2cccc3c2CCCN3)CCC1` [II-21], the EC50 runs as follows: under setting [1], less than 3 µM; under setting [2], less than 3 µM. For the same compound, where the note is “with co-corrector”, the “Maximum % activity (with co-corrector)” value is “+++ (≥350)”. The Emax (without co-corrector) is more than 150%.

Turning to `COc1ccc2c(S(=O)(=O)NC(=O)C3(c4cc(C5CC5)cnc4OCC(C)C)CC3)cccc2n1` [II-93], the EC50 under setting [1] is less than 3 µM and the 50% effective concentration (EC50) under setting [2] was less than 3 µM. Further, the “Maximum % activity (with co-corrector)” value (with co-corrector) is “+++ (≥350)”. For the same compound, the Emax (without co-corrector) was more than 150%.

As for `COc1cnc(OCC(C)C)c(C2(C(=O)NS(=O)(=O)c3cccc4ncccc34)CC2)c1` [Example GI-77, 1-[5-methoxy-2-(2-methylpropoxy)pyridin-3-yl]-N-(quinoline-5-sulfonyl)cyclopropane-1-carboxamide], the “Maximum % activity (with co-corrector)” value under setting [3] is listed as “+++ (≥350)”. The EC50 runs as follows: under setting [4], less than 3 µM; under setting [6], less than 3 µM. Moreover, the Emax under setting [5] is more than 150%.

For `Cc1ccccc1S(=O)(=O)NC(=O)C1(c2ccc3c(c2)OCO3)CC1` [Example III-86, 1-(2H-1,3-benzodioxol-5-yl)-N-(2-methylbenzene-1-sulfonyl)cyclopropane-1-carboxamide], the EC50 by setting is: under setting [1], 3 to 10 µM; under setting [2], 3 to 10 µM. For the same compound, the “Maximum % activity (with co-corrector)” value (with co-corrector) was “++ (≥150 and <350)”. Further, the Emax (without co-corrector) is less than 50%.

`O=C(NS(=O)(=O)c1cccc2ncccc12)C1(c2cc(C3CC3)cnc2C(F)(F)F)CC1` [GIII-10]: under setting [3], the “EC50 (with co-corrector)” value is on record as “++^a”; the “Maximum % activity (with co-corrector)” value is “++ (≥150 and <350)”. Further, under setting [5], the “EC50 (without co-corrector)” value is “++^a” and the Emax fell in the range of 50 to 150%.

For the compound `COc1cc(F)c(C(C)C)cc1C1(C(=O)NS(=O)(=O)c2cccc3c2CCCN3)CC1` [II-27], the EC50 reads like this: under setting [1], less than 3 µM; under setting [2], less than 3 µM. Further, the “Maximum % activity (with co-corrector)” value (with co-corrector) was “+++ (≥350)”. Moreover, the Emax (without co-corrector) is more than 150%.

For the compound `O=C(NS(=O)(=O)Cc1ccccc1)C1(c2ccccc2Cl)CC1` [Example III-113, 1-(2-chlorophenyl)-N-(phenylmethanesulfonyl)cyclopropane-1-carboxamide], the half-maximal effective concentration (EC50) is more than 10 µM under setting [1] and 3 to 10 µM under setting [2]. For the same compound, the “Maximum % activity (with co-corrector)” value (with co-corrector) was “++ (≥150 and <350)”. The Emax (without co-corrector) is less than 50%.

As to `Cc1ccc(S(=O)(=O)NC(=O)C2(c3cccc(Cl)c3)CC2)nc1` [Example III-84, 1-(3-chlorophenyl)-N-(5-methylpyridine-2-sulfonyl)cyclopropane-1-carboxamide], the EC50 under setting [1] was more than 10 µM and the EC50 under setting [2] is more than 10 µM. Under “with co-corrector”, the “Maximum % activity (with co-corrector)” value is on record as “+ (<150)”. Further, the Emax (without co-corrector) was less than 50%.

Regarding `CO[C@H](C)COc1ccc(C)cc1C1(C(=O)NS(=O)(=O)c2cccc3nc(C)ccc23)CC1` [Example I-116, 1-{2-[(2R)-2-methoxypropoxy]-5-methylphenyl}-N-(2-methylquinoline-5-sulfonyl)cyclopropane-1-carboxamide], the EC50 under setting [1] is less than 3 µM and the EC50 under setting [2] was less than 3 µM. In addition, the “Maximum % activity (with co-corrector)” value (with co-corrector) is “+++ (≥350)”. The Emax (without co-corrector) was more than 150%.

Consider `CCOc1ccc(C)cc1C1(C(=O)NS(=O)(=O)c2cccc3[nH]ccc23)CC1` [II-85], for which the EC50 was less than 3 µM under setting [1] and less than 3 µM under setting [2]. For the same compound, where the note is “with co-corrector”, the “Maximum % activity (with co-corrector)” value is reported as “+++ (≥350)”. Moreover, the Emax (without co-corrector) was more than 150%.

Turning to `CCn1nc(C)cc1C1(C(=O)NS(=O)(=O)c2cccc3ccccc23)CC1` [II-4], the EC50 runs as follows: under setting [1], 3 to 10 µM; under setting [2], 3 to 10 µM. The “Maximum % activity (with co-corrector)” value (with co-corrector) was “+++ (≥350)”. The Emax (without co-corrector) lay in the range of 50 to 150%.

For `CC(C)Oc1cnc(C2CCC2)cc1C1(C(=O)NS(=O)(=O)c2cccc3c2CCCN3)CC1` [GII-26, 1-{2-cyclobutyl-5-[(propan-2-yl)oxy]pyridin-4-yl}-N-(1,2,3,4-tetrahydroquinoline-5-sulfonyl)cyclopropane-1-carboxamide], the “Maximum % activity (with co-corrector)” value under setting [3] was “+++ (≥350)”. Also, the EC50 runs as follows: under setting [4], 3 to 10 µM; under setting [6], 3 to 10 µM. The Emax under setting [5] is more than 150%.

For the compound `COc1ccc(C)c(OC)c1C1(C(=O)NS(=O)(=O)c2cccc3ccccc23)CC1` [Example I-40, 1-(2,6-dimethoxy-3-methylphenyl)-N-(naphthalene-1-sulfonyl)cyclopropane-1-carboxamide], the EC50 was less than 3 µM under setting [1] and less than 3 µM under setting [2]. Further, the “Maximum % activity (with co-corrector)” value (with co-corrector) is given as “+++ (≥350)”. Also, the Emax (without co-corrector) was more than 150%.

As for `COc1ccc(C)nc1C1(C(=O)NS(=O)(=O)c2cccc3nc(C)ccc23)CC1` [Example III-126, 1-(3-methoxy-6-methylpyridin-2-yl)-N-(2-methylquinoline-5-sulfonyl)cyclopropane-1-carboxamide], the concentration for a half-maximal effect (EC50) runs as follows: under setting [1], less than 3 µM; under setting [2], less than 3 µM. Moreover, the “Maximum % activity (with co-corrector)” value (with co-corrector) is “++ (≥150 and <350)”. Moreover, for the setting “without co-corrector”, the Emax lay within 50 to 150%.

For the compound `COc1cc(C2(C(=O)NS(=O)(=O)c3cccc4ncccc34)CC2)c(OCC2CC2)cn1` [Example GI-91, 1-[5-(cyclopropylmethoxy)-2-methoxypyridin-4-yl]-N-(quinoline-5-sulfonyl)cyclopropane-1-carboxamide], the “Maximum % activity (with co-corrector)” value under setting [3] is “+++ (≥350)”. Further, the EC50 by setting is: under setting [4], less than 3 µM; under setting [6], 3 to 10 µM. For the same compound, the Emax under setting [5] was more than 150%.

Take `COc1ccc(C(C)C)cc1C1(C(=O)NS(=O)(=O)c2cccc3c2CCCN3)CC1` [II-26]: the EC50 by setting is: under setting [1], less than 3 µM; under setting [2], less than 3 µM. Also, where the note is “with co-corrector”, the “Maximum % activity (with co-corrector)” value is listed as “+++ (≥350)”. Further, under “without co-corrector”, the Emax is more than 150%.

Consider `Cc1ccc(O[C@@H]2CCOC2)c(C2(C(=O)NS(=O)(=O)c3cccc4ncccc34)CC2)c1` [Example I-122, 1-(5-methyl-2-{[(3R)-oxolan-3-yl]oxy}phenyl)-N-(quinoline-5-sulfonyl)cyclopropane-1-carboxamide], for which the EC50 was less than 3 µM under setting [1] and less than 3 µM under setting [2]. Moreover, the “Maximum % activity (with co-corrector)” value (with co-corrector) was “+++ (≥350)”. For the same compound, the Emax (without co-corrector) was more than 150%.

For `CCOC(C)(C)c1ccc(OC(F)F)c(C2(C(=O)NS(=O)(=O)c3cccc4ncccc34)CC2)c1` [II-106], the EC50 by setting is: under setting [1], 3 to 10 µM; under setting [2], 3 to 10 µM. Besides, the “Maximum % activity (with co-corrector)” value (with co-corrector) is “+++ (≥350)”. Besides, the Emax (without co-corrector) is more than 150%.

With `CC(C)Oc1cnc(OC(C)C)c(C2(C(=O)NS(=O)(=O)c3cccc4[nH]ccc34)CC2)c1` [Example GI-66, 1-{2,5-bis[(propan-2-yl)oxy]pyridin-3-yl}-N-(1H-indole-4-sulfonyl)cyclopropane-1-carboxamide], the “Maximum % activity (with co-corrector)” value under setting [3] was “+++ (≥350)”. Moreover, the EC50 was less than 3 µM under setting [4] and less than 3 µM under setting [6]. Further, the Emax under setting [5] was more than 150%.

In the case of `O=C(NS(=O)(=O)c1cccc2ncccc12)C1(c2ncc(C(F)(F)F)cc2Cl)CC1` [GIII-1], under setting [3], the “EC50 (with co-corrector)” value is “++^a”; the “Maximum % activity (with co-corrector)” value was “++ (≥150 and <350)”. Further, under setting [5], the “EC50 (without co-corrector)” value is on record as “++^a” and the Emax was less than 50%.

As for `O=C(NS(=O)(=O)c1ccccc1)C1(c2ccc(Cl)cc2)CC1` [Example III-33, N-(benzenesulfonyl)-1-(4-chlorophenyl)cyclopropane-1-carboxamide], the EC50 under setting [1] lay in the range of 3 to 10 µM and the EC50 under setting [2] lay within 3 to 10 µM. The “Maximum % activity (with co-corrector)” value (with co-corrector) is “++ (≥150 and <350)”. Moreover, the Emax (without co-corrector) was less than 50%.

As to `COc1ccc(C2CCC2)cc1C1(C(=O)NS(=O)(=O)c2cccc3[nH]ccc23)CC1` [Example I-55, 1-(5-cyclobutyl-2-methoxyphenyl)-N-(1H-indole-4-sulfonyl)cyclopropane-1-carboxamide], the EC50 under setting [1] is less than 3 µM and the EC50 under setting [2] is less than 3 µM. Besides, the “Maximum % activity (with co-corrector)” value (with co-corrector) was “+++ (≥350)”. Moreover, where the note is “without co-corrector”, the Emax is more than 150%.

On to `COCC1(c2cnc(OC(C)C)c(C3(C(=O)NS(=O)(=O)c4cccc5ccccc45)CC3)c2)CC1` [Example GI-119, 1-{5-[1-(methoxymethyl)cyclopropyl]-2-[(propan-2-yl)oxy]pyridin-3-yl}-N-(naphthalene-1-sulfonyl)cyclopropane-1-carboxamide], for which, under setting [3], the “Maximum % activity (with co-corrector)” value is recorded as “+++ (≥350)”. Besides, the EC50 by setting is: under setting [4], less than 3 µM; under setting [6], less than 3 µM. Besides, the Emax under setting [5] was more than 150%.

With `CCc1cnc(N2CCCC2)c(C2(C(=O)NS(=O)(=O)c3cccc4ncccc34)CC2)c1` [GII-30, 1-[5-ethyl-2-(pyrrolidin-1-yl)pyridin-3-yl]-N-(quinoline-5-sulfonyl)cyclopropane-1-carboxamide], the “Maximum % activity (with co-corrector)” value under setting [3] is “+++ (≥350)”. Moreover, the half-maximal effective concentration (EC50) was 3 to 10 µM under setting [4] and 3 to 10 µM under setting [6]. Further, the Emax under setting [5] is more than 150%.

For the compound `CC(=O)N1CCC(S(=O)(=O)NC(=O)C2(c3ccc(Cl)cc3Cl)CC2)CC1` [Example III-78, N-(1-acetylpiperidine-4-sulfonyl)-1-(2,4-dichlorophenyl)cyclopropane-1-carboxamide], the EC50 under setting [1] was more than 10 µM and the EC50 under setting [2] was more than 10 µM. Further, the “Maximum % activity (with co-corrector)” value (with co-corrector) is listed as “+ (<150)”. The Emax (without co-corrector) was less than 50%.
